Laboratory results reported in patent US20150299218A1, “Heterocyclic Compounds As Inhibitors Of The Sodium Iodide Symporter” (COMMISSARIAT A L'ENERGIE ATOMIQUE ET AUX ENERGIES …, priority 2012, published 2015).

Target: T1, sodium iodide symporter (NIS) (Rattus norvegicus, UniProt Q63008)
T1 construct: endogenous in cells; host or cells: FRTL5 (rat thyroid-derived cells)
T1 sequence (Q63008 1-618): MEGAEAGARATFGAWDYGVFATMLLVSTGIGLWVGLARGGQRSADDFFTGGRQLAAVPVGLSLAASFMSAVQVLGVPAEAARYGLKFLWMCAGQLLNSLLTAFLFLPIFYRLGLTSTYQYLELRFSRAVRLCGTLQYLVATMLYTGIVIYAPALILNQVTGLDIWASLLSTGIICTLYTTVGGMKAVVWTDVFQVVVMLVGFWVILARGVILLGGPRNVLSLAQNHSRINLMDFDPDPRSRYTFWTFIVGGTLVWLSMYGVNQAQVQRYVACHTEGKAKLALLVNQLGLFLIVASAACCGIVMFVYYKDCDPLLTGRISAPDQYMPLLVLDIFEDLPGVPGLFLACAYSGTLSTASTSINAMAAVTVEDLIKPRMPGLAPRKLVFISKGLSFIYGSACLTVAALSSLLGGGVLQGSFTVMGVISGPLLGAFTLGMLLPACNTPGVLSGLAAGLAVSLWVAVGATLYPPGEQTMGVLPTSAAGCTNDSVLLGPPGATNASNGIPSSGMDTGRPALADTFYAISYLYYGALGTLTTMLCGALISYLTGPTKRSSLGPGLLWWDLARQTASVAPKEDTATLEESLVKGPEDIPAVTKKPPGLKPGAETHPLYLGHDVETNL
Experiment: radioiodide uptake assay in FRTL5 cells (24-well plate)
Format: cell-based
Conditions: 60 min, NaI 10 μM, averaged from two to four independent experiments, read-out: IC50 against iodide uptake in FRTL5 cells
Method: In the framework of the invention, the NIS inhibitor is evaluated as follow: rat thyroid-derived cells (FRTL5 cells expressing NIS) are incubated during 1 h with iode and 125-I as a tracer, and in the presence of various concentration of compound. For each tested concentration of compound, the amount of iodide inside the cells is quantified by radioactive counting. The half-maximum inhibitory concentration (IC50) is evaluated for each compound by regression analysis (to the Hill equation) from dose-response data. A detailed protocol is provided in the experimental section, and also in N. Lecat-Guillet et al., ChemMedChem, 2008.
The synthesized compounds were evaluated for their ability to inhibit iodide entrapment in FRTL5 cells using a rodiodide uptake assay. The IC50 values were measured in at least two independent experiments.
The biological activity of each compound was determined in FRTL5 cells, using a 24-well plate format radioiodide uptake assay. Each experiment was run in quadruplicate and at least twice independently. Compound potency was expressed as IC50, the concentration of compound necessary to achieve 50% inhibition of iodide uptake. NaClO4 and the Compound 2 were tested as assay controls.
FRTL5 cells were cultured in Coon's modified F12 medium supplemented with 5% heat-inactivated fetal bovine serum (Invitrogen), 2 mM L-glutamine, 100 U/mL penicillin, 0.1 mg/mL streptomycin, 10 μg/mL insulin, 10 nM hydrocortisone, 10 ng/mL Gly-His-Lys acetate, 1 mU/mL TSH, 5 μg/mL transferrin at 37° C. and 5% CO2. For iodide uptake assays, 1.25 mL of FRTL5 cells with density of 250,000 cells/mL were dispensed in each well of clear flat-bottomed 24-well polystyrene microplates (BD Falcon 3047), and further cultured until confluence reached 70-90% (3-4 days).
Prepare ˜1.5 mL/plate of an intermediate “10-fold” radioiodide uptake buffer solution: NaI (100 μM) and [125-I]-NaI (20 μCi/mL) in uptake buffer (HBSS/Hepes).
For each concentration of compound tested, prepare ˜2.5 mL of compound solutions in uptake buffer (HBSS/Hepes 10 mM) at 1.12 fold the final concentration, so that 450 μL of this solution plus 50 μL of radioiodide uptake buffer makes the desired final concentration (NaI 10 μM final, 1 μCi/well).
The procedure is performed at 20±2° C. in a well ventilated hood. Culture medium of FRTL5 cells is removed by aspiration. Compound solutions are added to the 24-well plate in quadruplicate (450 μL/well) immediately followed by [125I]-NaI radioiodide uptake buffer (50 μL/well, 10 μM final, 1 μCi/well). The 24-well plate is left to stand for 60 min. Radioactive supernatants are removed by aspiration and the cell are washed twice with 500 μL of cold uptake buffer (HBSS/Hepes at 4° C.). Finally, the residual supernatant is removed by aspiration and 500 μL of lysis buffer (SDS 0.1%, triton 0.5%) is added to each well. The 24-well plate is gently agitated for 60-120 min. The radioactive cell lysates are collected and placed into scintillation vials. Scintillation cocktail (Ultima gold LLT, Perkin Elmer) is added to each vial (4 mL) and the radioactivity is measured (Wallac 1409). For IC50 determination, mean DPM values were fitted by non-linear regression (least square) to the four-parameter sigmoidal Hill equation.
IC50 values are averaged from two to four independent experiments. A standard deviation of 2-fold was judged acceptable. NaClO4 and Compound 2 were tested as assay controls.

Row | IC50 [nM] | SMILES
1 | 200 | Fc1ccc(C2OCCc3c2[nH]c2ccccc32)cc1Cl (stereo not shown) [Compound 12, 1-(3-chloro-4-fluorophenyl)-1,3,4,9-tetrahydropyrano[3,4-b]indole]
2 | 170 | Fc1ccc(F)c(C2OCCc3c2[nH]c2ccccc32)c1 (stereo not shown) [Compound 7, 1-(2,5-difluorophenyl)-1,3,4,9-tetrahydropyrano[3,4-b]indole]
3 | 5.3 | O=[N+]([O-])c1cccc(C2OCCc3c2[nH]c2ccccc32)c1 (stereo not shown) [Compound 4, 1-(3-nitrophenyl)-1,3,4,9-tetrahydropyrano[3,4-b]indole]
4 | 140 | Clc1cccc(C2OCCc3c2[nH]c2ccccc32)c1 (stereo not shown) [Compound 9, 1-(3-chlorophenyl)-1,3,4,9-tetrahydropyrano[3,4-b]indole]
5 | 57 | COc1ccc(F)c(C2OCCc3c2[nH]c2ccccc32)c1 (stereo not shown) [Compound 10, 1-(2-fluoro-5-methoxyphenyl)-1,3,4,9-tetrahydropyrano[3,4-b]indole]
6 | 170 | Brc1cccc(C2OCCc3c2[nH]c2ccccc32)c1 (stereo not shown) [Compound 11, 1-(3-bromophenyl)-1,3,4,9-tetrahydropyrano[3,4-b]indole]
7 | 0.41 | c1cc2c(c(C3OCCc4c3[nH]c3ccccc43)c1)OCO2 (stereo not shown) [Compound 8, 1-(benzo[d][1,3]dioxol-4-yl)-1,3,4,9-tetrahydropyrano[3,4-b]indole]
8 | 1.1 | Nc1cccc(C2OCCc3c2[nH]c2ccccc32)c1 (stereo not shown) [Compound 13, 1-(3-aminophenyl)-1,3,4,9-tetrahydropyrano[3,4-b]indole]

Row | SMILES | IC50 [nM]
9 | O=[N+]([O-])c1cccc(C2SCCc3c2[nH]c2ccccc32)c1 (stereo not shown) [Compound 6, 1-(3-nitrophenyl)-1,3,4,9-tetrahydrathiopyrano[3,4-b]indole] | 140
10 | O=[N+]([O-])c1cccc(C2NCCc3c2oc2ccccc32)c1 (stereo not shown) [Compound 5, 1-(3-nitrophenyl)-1,2,3,4-tetrahydro[1]benzofuro[2,3-c]pyridine] | 200

Target: T1, sodium iodide symporter (NIS)
Experiment: not given
Conditions: rat thyroid-derived cells (FRTL5); F. Waltz et al. 2010; read-out: IC50 competitive inhibition of iodide transport in FRTL5; cited from earlier work

Row | SMILES | IC50 [nM]
11 | O=[N+]([O-])O [NO3^−] | 250000
12 | F[B-](F)(F)F [BF4^−] | 750
13 | [O-][Cl+3]([O-])([O-])O [ClO4^−] | 140
14 | F[P-](F)(F)(F)(F)F [PF6^−] | 9

Test system: not given
Experiment: not given
Conditions: concentration up to 200 μM; cited from earlier work

Row | SMILES | cytotoxicity
15 | O=[N+]([O-])c1cccc(C2NCCc3c2[nH]c2ccccc32)c1 (stereo not shown) [Compound 2] | not cytotoxic
16 | Brc1cccc(C2NCCc3c2[nH]c2ccccc32)c1 (stereo not shown) [Compound 1] | not cytotoxic
